Results as given in patent US8759014B2, “Methods of obtaining antigen-specific T cell populations” (The United States of America, as represented by the …, priority 2008, dated 2014).

Legend:
[1] = tested on: PBMC from HLA-A2+ metastatic melanoma patients
[2] = tested on: PBMC sub-populations; assay: HT-qPCR IFN-γ screen of PBMC sub-populations contacted with candidate mesothelin peptides; type: cell-based, human; conditions: highest IFN-γ mRNA stimulation index of PBMC sub-populations contacted with the peptide and IL-2; SI <2 = not reactive
Procedure: PBMCs obtained by leukapheresis from HLA-A2+ metastatic melanoma patients are used to establish 96 independent subpopulations cultured in complete medium (CM) consisting of RPMI 1640 supplemented with 10% heat-inactivated fetal bovine serum, 2 mM L-glutamine (Invitrogen, Carlsbad, Calif.), 50 units/mL penicillin (Invitrogen), 50 μg/mL streptomycin (Invitrogen), 50 μg/mL gentamicin (Invitrogen), 10 mM Hepes (Invitrogen), and 250 ng/mL Amphotericin B (Invitrogen), along with 10% heat-inactivated human AB serum (Gemini Bio-Products, Woodland, Calif.). […] The SI reactivities for the 96 wells are stratified by their magnitude and the most reactive subpopulations are selected for limiting dilution cloning.
Mesothelin peptides of the following amino acid sequence are synthesized as essentially described in Example 1: […] (SEQ ID NO: 12), […] (SEQ ID NO: 11), […] (SEQ ID NO: 13), […] (SEQ ID NO: 14), […] (SEQ ID NO: 15), […] (SEQ ID NO: 16), […] (SEQ ID NO: 17), […] (SEQ ID NO: 18), […] (SEQ ID NO: 19), and […] (SEQ ID NO: 20). The peptides are used to contact PBMC sub-populations along with IL-2 in accordance with the procedures described in Example 4. HT-qPCR is performed on a sample of each sub-population to determine the expression of IFN-γ by the contacted PBMC sub-populations.

Molecule	number of patients with at least one microculture with significant peptide reactivity (SI >2) [1] [patients]	percent of patients with individual wells with peptide reactivity above background ([1]; 17 HLA-A2+ melanoma patients (8 for gp100154-162), 1 μM peptide, 6 days, IL-2 90 IU/ml) [%]	Highest SI (Day 14) [2]
CC[C@H](C)[C@H](N)C(=O)N[C@H](C(=O)N[C@@H](CC(=O)O)C(=O)N[C@@H](CCC(N)=O)C(=O)N[C@H](C(=O)N1CCC[C@H]1C(=O)N[C@@H](Cc1ccccc1)C(=O)N[C@@H](CO)C(=O)N[C@H](C(=O)O)C(C)C)C(C)C)[C@@H](C)O [gp100209-217]	16	94	–
FLLFSLGWV	–	–	29
LIFYKKWEL	–	–	<2
LLATQMDRV	–	–	<2
LLGFPCAEV	–	–	<2
LPLDLLLFL	–	–	<2
NMNGSEYFV	–	–	*<2
RLSEPPEDL	–	–	<2
SLLFLLFSL	–	–	119
VLLPRLVSC	–	–	<2
VLPLTVAEV	–	–	<2
